The values that follow come from patent publication US20070122830A1, “Prohibitin-directed diagnostics and therapeutics for cancer and chemotherapeutic drug resistance” (Aurelium BioPharma Inc., priority 2005, published 2007).

The series relates to hematological tumor cells. As to the kind of experiment: Hematological tumor model in MHC-matched mice, prohibitin siRNA plus chemotherapy. The class given is in vivo. The conditions noted are these: Example 8. Here is the method:
In order to determine whether targeting prohibitin is useful in treating a preexisting cancerous condition, MHC-matched mice, 5 to 7 weeks old, receive a subcutaneous (s.c.) injection of the cells 5×10^5 hematological tumor cells, and tumors are allowed to form. Tumor growth starting on the first day of treatment is measured by palpitation, and the volume of the xenograft is monitored every 4 days. Tumors are allowed to grow to a sufficient size (5.5 mm) for appropriate analysis of the effects of prohibitin treatment on tumor sensitivity to chemotherapeutic drugs. Mice are then treated with a prohibitin siRNA (3 μg daily for 16 days) designed to decrease the level of expression of prohibitin. […]
The animal's weight is measured every 4 days. Tumor growth starting on the first day of treatment is measured by palpitation and the volume of the xenograft is monitored every 4 days. […] Tumor tissue is excised from the mice and its weight is measured. […] Tumor cell count is determined by trypsinizing tumors in DMEM medium supplemented with 10% fetal bovine serum until cells are in free suspension. […]
Liposome formulations are produced as described previously (Shi et al. (2000) Proc. Natl. Acad. Sci. USA. 97(13): 7567-7572). […] The mean vesicle diameters are determined by quasielastic light scattering using a Microtrac Ultrafine Particle Analyzer (Leeds-Northrup, St. Petersburg, Fla.). […]

In the case of “prohibitin siRNA: siRNA duplex to human prohibitin mRNA nt 425-443; sense 5′-GGAAGUGGUCUGUCUGUUAtt-3′, antisense 5′-UAACAGACAGACCACUUCCtt-3′ (sense GGAAGUGGUCUGUCUGUUATT; antisense UAACAGACAGACCACUUCCTT; chemistry not given here)”, the “sensitivity of hematological tumors to chemotherapeutic drug treatment” value (siRNA 3 μg daily for 16 days with taxol or doxorubicin) was “increases the sensitivity”. In addition, the “prognosis (tumor size, tumor cells) vs targeting agent only or drug only” value (siRNA plus taxol or doxorubicin) is recorded as “better prognosis (i.e., smaller tumor or fewer tumor cells)”.
